Experimental data: paper PMC8595862 (Environmental toxicology and pharmacology, 2021)
Counter-ions that a name gives are not always drawn.

Experiments:
[1] = rats, 0.6 mg/kg intravenous injection; ref Grimm et al., 2015a; cited from earlier work
[2] = tested on: human hepatic microsomal sulfatase; assay: Human hepatic microsomal sulfatase assay; format: in vitro ADME; conditions: relative to DHEA sulfate
[3] = human cohort exposed to PCBs; calculated; ref Quinete et al., 2017; cited from earlier work

SMILES | Catalytic efficiency compared with DHEA sulfate [2] | Plasma half-life [3] [years] | also measured
O=S(=O)(O)Oc1ccc(-c2cccc(Cl)c2)cc1Cl [4-PCB 11 Sulfate, 3,3’-dichloro-4-biphenylsulfate] | – | – | Tissue uptake, metabolism and urinary excretion [1]: taken up by tissues and further metabolized, with only a small percentage excreted in the urine
O=S(=O)(O)Oc1cc(Cl)c(-c2cc(Cl)ccc2Cl)cc1Cl [4-PCB 52 Sulfate, 2,2’,5,5’-tetrachloro-4-biphenylsulfate] | over 20 times | – | –
Oc1ccc(-c2ccc(Cl)cc2Cl)cc1Cl [4’-OH-PCB 25, 2,3’,4-trichloro-4’-hydroxybiphenyl] | – | 6.46 | –
O=S(=O)(O)Oc1ccc(-c2ccc(Cl)c(Cl)c2)cc1 [4’-PCB 12 Sulfate, 3,4-dichloro-4’-biphenylsulfate] | the same as DHEA sulfate | – | –
Clc1ccc(-c2ccc(Cl)cc2Cl)cc1 [PCB 28, 2,4,4’-trichlorobiphenyl] | – | 4.32 | –
